# The source made the active and inactive calls. The calls are words filed in the database; no cut-off is given here.
# Key:
# [1] = system: Mus musculus; assay: Anti-alzheimer activity against APP/PS1 mouse model assessed as increase in time spent in the target quadrant at 10 mg/kg, ip administered for 30 days by Morris water maze test; assay type: functional, organism-based; conditions: time 30.0 day
# [2] = system: HeLa; assay: Induction of cell cycle arrest in human HeLa cells assessed as effect on CDK4 level at 10 uM incubated for 12 hrs by qRT-PCR analysis; assay type: functional, cell-based
# [3] = Tmax in ICR mouse at 20 mg/kg, po measured upto 24 hrs by LC-MS/MS analysis; assay type: ADME, organism-based; conditions: in vivo
# [4] = Induction of TFEB nuclear translocation in human HeLa cells expressing EGFP at 10 uM measured at 3 hrs by fluorescence microscopic analysis; assay type: functional
# [5] = Ratio of drug concentration in ICR mouse brain to plasma at 5 mg/kg, iv measured upto 24 hrs by LC-MS/MS analysis; assay type: ADME, organism-based; conditions: brain and plasma, read-out: BPR
# [6] = system: Mus musculus; assay: Anti-alzheimer activity against APP/PS1 mouse model assessed as upregulation of CTSB mRNA expression in brain at 10 mg/kg, ip administered for 30 days; assay type: functional, organism-based; conditions: time 30.0 day
# [7] = system: HeLa; assay: Upregulation of p62 mRNA expression in TFEB knockout human HeLa cells at 10 uM incubated for 24 hrs by qRT-PCR analysis; assay type: functional, cell-based
# [8] = Acute toxicity in C57BL/6J mouse assessed as change in body weight at 50 mg/kg, ip measured upto 14 days; assay type: organism-based; conditions: in vivo, 336 h, time < 14 day
# [9] = system: HeLa; assay: Upregulation of UVRAG mRNA expression in human HeLa cells at 10 uM incubated for 24 hrs by qRT-PCR analysis; assay type: functional, cell-based
# [10] = Tmax in ICR mouse at 10 mg/kg, ip measured upto 24 hrs by LC-MS/MS analysis; assay type: ADME, organism-based; conditions: in vivo
# [11] = system: HeLa; assay: Upregulation of HEXA mRNA expression in TFEB knockout human HeLa cells at 10 uM incubated for 24 hrs by qRT-PCR analysis; assay type: functional, cell-based
# [12] = system: Mus musculus; assay: Anti-alzheimer activity against APP/PS1 mouse model assessed as reduction in amyloid beta 42 plaque in cortex at 10 mg/kg, ip administered for 30 days; assay type: functional; parameters: scale not given: the % may be the effect or the level left; conditions: time 30 day
# [13] = system: Mus musculus; assay: Anti-alzheimer activity against APP/PS1 mouse model assessed as upregulation of LAMP1 mRNA expression in brain at 10 mg/kg, ip administered for 30 days; assay type: functional, organism-based; conditions: time 30.0 day
# [14] = system: Mus musculus; assay: Anti-alzheimer activity against APP/PS1 mouse model assessed as upregulation of WIPL1 mRNA expression in brain at 10 mg/kg, ip administered for 30 days; assay type: functional, organism-based; conditions: time 30.0 day
# [15] = Ratio of drug concentration in ICR mouse brain to plasma at 10 mg/kg, ip measured upto 24 hrs by LC-MS/MS analysis; assay type: ADME, organism-based; conditions: brain and plasma, read-out: BPR
# [16] = Cmax in ICR mouse at 10 mg/kg, ip measured upto 24 hrs by LC-MS/MS analysis; assay type: ADME, organism-based; conditions: in vivo
# [17] = system: HeLa; assay: Induction of cell cycle arrest in human HeLa cells assessed as effect on LAMP1 level at 10 uM incubated for 12 hrs by qRT-PCR analysis; assay type: functional, cell-based
# [18] = system: Mus musculus; assay: Anti-alzheimer activity against APP/PS1 mouse model assessed as upregulation of p62 mRNA expression in brain at 10 mg/kg, ip administered for 30 days; assay type: functional, organism-based; conditions: time 30.0 day
# [19] = system: HeLa; assay: Upregulation of ATG2A mRNA expression in TFEB knockout human HeLa cells at 10 uM incubated for 24 hrs by qRT-PCR analysis; assay type: functional, cell-based
# [20] = system: HeLa; assay: Upregulation of LAMP1 mRNA expression in human HeLa cells at 10 uM incubated for 24 hrs by qRT-PCR analysis; assay type: functional, cell-based
# [21] = Cmax in ICR mouse at 20 mg/kg, po measured upto 24 hrs by LC-MS/MS analysis; assay type: ADME, organism-based; conditions: in vivo
# [22] = biological target: Cyclin-dependent kinase 9 (Homo sapiens) (UniProt P50750); assay: Inhibition of CDK9 in human SH-SY5Y cells assessed as decrease in Rpb1 phosphorylation at 10 uM incubated for 6 hrs by immunoblotting analysis; assay type: cell-based
# Cyclin-dependent kinase 9 (Homo sapiens), sequence (P50750 whole entry): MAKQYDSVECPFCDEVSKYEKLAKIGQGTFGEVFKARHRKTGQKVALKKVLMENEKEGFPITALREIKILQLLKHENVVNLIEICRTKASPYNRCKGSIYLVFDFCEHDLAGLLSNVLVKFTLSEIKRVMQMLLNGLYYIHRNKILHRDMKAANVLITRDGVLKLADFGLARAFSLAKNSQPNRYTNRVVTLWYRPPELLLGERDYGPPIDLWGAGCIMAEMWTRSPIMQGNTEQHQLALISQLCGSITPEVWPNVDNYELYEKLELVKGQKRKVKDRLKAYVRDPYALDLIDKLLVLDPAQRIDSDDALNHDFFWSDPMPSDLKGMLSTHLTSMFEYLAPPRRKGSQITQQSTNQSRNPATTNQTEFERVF
# [23] = system: Mus musculus; assay: Anti-alzheimer activity against APP/PS1 mouse model assessed as reduction in amyloid beta plaque in cortex at 10 mg/kg, ip administered for 30 days; assay type: functional; parameters: scale not given: the % may be the effect or the level left; conditions: time 30 day
# [24] = Induction of TFEB nuclear translocation in human HeLa cells expressing EGFP at 30 uM measured at 6 hrs by fluorescence microscopic analysis; assay type: functional
# [25] = system: HeLa; assay: Upregulation of CTSD mRNA expression in human HeLa cells at 10 uM incubated for 24 hrs by qRT-PCR analysis; assay type: functional, cell-based
# [26] = system: HeLa; assay: Upregulation of UVRAG mRNA expression in TFEB knockout human HeLa cells at 10 uM incubated for 24 hrs by qRT-PCR analysis; assay type: functional, cell-based
# [27] = system: HeLa; assay: Upregulation of Atg16L1 mRNA expression in TFEB knockout human HeLa cells at 10 uM incubated for 24 hrs by qRT-PCR analysis; assay type: functional, cell-based
# [28] = Half life in ICR mouse at 20 mg/kg, po measured upto 24 hrs by LC-MS/MS analysis; assay type: ADME, organism-based; conditions: in vivo
# [29] = system: Mus musculus; assay: Anti-alzheimer activity against APP/PS1 mouse model assessed as reduction in time to locate hidden platform at 10 mg/kg, ip administered for 30 days by Morris water maze test; assay type: functional, organism-based; conditions: time 30.0 day
# [30] = AUC (0 to t) in ICR mouse at 10 mg/kg, ip measured upto 24 hrs by LC-MS/MS analysis; assay type: ADME, organism-based; conditions: in vivo
# [31] = system: Mus musculus; assay: Anti-alzheimer activity against APP/PS1 mouse model assessed as upregulation of CTSF mRNA expression in brain at 10 mg/kg, ip administered for 30 days; assay type: functional, organism-based; conditions: time 30.0 day
# [32] = Half life in ICR mouse at 10 mg/kg, ip measured upto 24 hrs by LC-MS/MS analysis; assay type: ADME, organism-based; conditions: in vivo
# [33] = system: SH-SY5Y; assay: Cytotoxicity against human SH-SY5Y cells assessed as effect on cell viability at 10 uM incubated for 24 hrs; assay type: functional, cell-based
# [34] = system: HeLa; assay: Upregulation of LC3B mRNA expression in TFEB knockout human HeLa cells at 10 uM incubated for 24 hrs by qRT-PCR analysis; assay type: functional, cell-based
# [35] = system: HeLa; assay: Upregulation of CTSD mRNA expression in TFEB knockout human HeLa cells at 10 uM incubated for 24 hrs by qRT-PCR analysis; assay type: functional, cell-based
# [36] = system: HeLa; assay: Upregulation of CTSF mRNA expression in human HeLa cells at 10 uM incubated for 24 hrs by qRT-PCR analysis; assay type: functional, cell-based
# [37] = Volume of distribution at steady state in ICR mouse measured upto 24 hrs by LC-MS/MS analysis; assay type: ADME; conditions: in vivo, read-out: Vdss
# [38] = system: HeLa; assay: Upregulation of OPTN mRNA expression in TFEB knockout human HeLa cells at 10 uM incubated for 24 hrs by qRT-PCR analysis; assay type: functional, cell-based
# [39] = system: HeLa; assay: Upregulation of ATG2A mRNA expression in human HeLa cells at 10 uM incubated for 24 hrs by qRT-PCR analysis; assay type: functional, cell-based
# [40] = Induction of TFEB nuclear translocation in human HeLa cells expressing EGFP at 10 uM measured at 6 hrs by fluorescence microscopic analysis; assay type: functional
# [41] = system: HeLa; assay: Cytotoxicity against human HeLa cells assessed as effect on cell viability at 10 uM incubated for 24 hrs; assay type: functional, cell-based
smiles,measurement,setting,value
c1ccc2c(CCC3NCCc4cc5c(cc43)OCO5)c[nH]c2c1 (configuration not stated),Activity,[1],Active
same,Activity,[2],inactive
same,Tmax,[3],0.58 h
same,Activity,[4],44%
same,Kp at 24 h,[5],2.8
same,Activity,[6],Active
same,Activity,[7],Active
same,Activity,[8],Non-Toxic
same,Activity,[9],Active
same,Tmax,[10],0.05 h
same,Activity,[11],Active
same,Activity,[12],47%
same,Activity,[13],Active
same,Activity,[14],Active
same,Kp at 24 h,[15],1.1
same,Cmax,[16],4720 ng/mL
same,Activity,[17],inactive
same,Activity,[18],Active
same,Activity,[19],Active
same,Activity,[20],Active
same,Cmax,[21],4030 ng/mL
same,inhibition,[22],Active
same,Activity,[23],26.5%
same,Activity,[24],98%
same,Activity,[25],Active
same,Activity,[26],Active
same,Activity,[27],Active
same,half-life,[28],3.1 h
same,Activity,[29],Active
same,AUC(0-t) at 24 h,[30],7640 ng·h/mL
same,Activity,[31],Active
same,half-life,[32],2.05 h
same,Activity,[33],Active
same,Activity,[34],Active
same,Activity,[35],Active
same,Activity,[36],Active
same,Vd,[37],4.51 L/kg
same,Activity,[38],Active
same,Activity,[39],Active
same,Activity,[40],51%
same,Activity,[41],Active
Fc1ccc2[nH]cc(CCC3c4cc5c(cc4CCN3CC3CCOCC3)OCO5)c2c1 (configuration not stated),Activity,[1],Active
same,Activity,[2],inactive
same,Tmax,[3],0.42 h
same,Activity,[4],72%
same,Kp at 24 h,[5],6.9
same,Activity,[6],Active
same,Activity,[7],Active
same,Activity,[8],Non-Toxic
same,Activity,[9],Active
same,Tmax,[10],1.35 h
same,Activity,[11],Active
same,Activity,[12],36.3%
same,Activity,[13],Active
same,Activity,[14],Active
same,Kp at 24 h,[15],5.2
same,Cmax,[16],146 ng/mL
same,Activity,[17],inactive
same,Activity,[18],Active
same,Activity,[19],Active
same,Activity,[20],Active
same,Cmax,[21],9.49 ng/mL
same,inhibition,[22],Active
same,Activity,[23],29.5%
same,Activity,[24],98%
same,Activity,[25],Active
same,Activity,[26],Active
same,Activity,[27],Active
same,half-life,[28],2.37 h
same,Activity,[29],Active
same,AUC(0-t) at 24 h,[30],210 ng·h/mL
same,Activity,[31],Active
same,half-life,[32],1.17 h
same,Activity,[33],Active
same,Activity,[34],Active
same,Activity,[35],Active
same,Activity,[36],Active
same,Vd,[37],36.8 L/kg
same,Activity,[38],Active
same,Activity,[39],Active
same,Activity,[40],79%
same,Activity,[41],Active
